According to PMC5880951, “Pentocin MQ1: A Novel, Broad-Spectrum, Pore-Forming Bacteriocin From Lactobacillus pentosus CS2 With Quorum Sensing Regulatory Mechanism and Biopreservative Potential” (Frontiers in Microbiology, 2018):

What was measured:
[1] = test system: Micrococcus luteus ATCC 10240; assay: Membrane permeabilization (pore formation), SYTOX green; format: cell-based; conditions: 5 μM SYTOX green, pentocin MQ1 at 5 X MIC, nisin as positive control, Real-Time PCR read-out, triplicates
Procedure: Pore formation assay was done to understand the mechanism of action of pentocinMQ1. M. luteus was grown in Mueller-Hinton broth until OD600nm = 0.45 after which 5 μM SYTOX green dye (Invitrogen, USA) was added. Ninety microliters of stained bacteria was added to MicroAmp Fast Optical 96-well reaction plate (Applied Biosystems, Life Technologies, USA). After a stable line base was attained, 10 μl of pentocin MQ1 (5 X MIC) was added to the stained bacteria. Sodium phosphate buffer (5 mM) and nisin (Sigma-Aldrich, USA) were added to stained bacteria in different wells to serve as negative and positive controls, respectively. Experiments were done in triplicates. Fluorescence as a result of binding of SYTOX green to leaked intracellular DNA was monitored using Real-Time PCR (Applied Biosystems, USA).

M. luteus = conditions: within 30 min; ref Barbour et al., 2016; cited from earlier work
From the text: The two main modes of action of LAB bacteriocins against Gram-positive bacteria are pore formation and inhibition of cell wall synthesis (Cotter et al., [2013]). […] This implies that pore formation is a more rapid killing mechanism.

Micrococcus spp. = conditions: ref Mota-Meira et al., 2000; cited from earlier work
Procedure: (§1) Pentocin MQ1 was strongly inhibitory against L. monocytogenes NCTC 10890, M. luteus ATCC 10240, and B. cereus ATCC14579 at micromolar concentrations. High activity at low concentration is a desirable property of natural biopreservatives (Bali et al., [2016]). MIC-values for nisin A against Micrococcus spp. and Bacillus spp. (Mota-Meira et al., [2000]) are lower than that of pentocin MQ1. […] After 120 min ...

Bacillus spp. = conditions: ref Mota-Meira et al., 2000; cited from earlier work
Procedure: as §1

Substance	fluorescence intensity (SYTOX green binding to leaked intracellular DNA) [1]	increase in fluorescence (M. luteus)	MIC compared with pentocin MQ1 (Micrococcus spp.)	MIC compared with pentocin MQ1 (Bacillus spp.)
nisin	higher fluorescence intensity	caused an increase in fluorescence intensity	–	–
nisin A	–	–	lower	lower
